Read-outs that look alike come from different tables or passages of the source.
Experiments:
[1] = target: T1, Bovine Carbonic Anhydrase-II (Bos taurus, UniProt P00921); assay: Kinetics studies (Lineweaver-Burk, Dixon plots) against Bovine Carbonic Anhydrase-II; type: biochemical; set-up: Vmax app: unit not given here; conditions: for Type of Inhibition: Lineweaver-Burk / Dixon plots; for Vmax: enzyme Vmax without inhibitor; for Vmax app: apparent Vmax with inhibitor (0.2-0.00625 μM)
T1 construct: pure bovine erythrocyte CA-II; from tissue; host or cells: bovine erythrocytes
T1 sequence (P00921 whole entry): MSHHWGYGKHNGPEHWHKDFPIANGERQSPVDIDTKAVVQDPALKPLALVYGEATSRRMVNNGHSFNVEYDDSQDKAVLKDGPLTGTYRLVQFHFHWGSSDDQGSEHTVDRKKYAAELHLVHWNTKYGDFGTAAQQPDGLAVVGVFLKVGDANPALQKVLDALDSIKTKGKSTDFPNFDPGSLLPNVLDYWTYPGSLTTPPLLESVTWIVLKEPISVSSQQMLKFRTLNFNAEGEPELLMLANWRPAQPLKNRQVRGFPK
Protocol: FIG. 2B depicts the double reciprocal plot for Ki determination which is between Slope Vs Inhibitor Conc.
FIG. 3B depicts the double reciprocal plot for Ki determination which is between Slope Vs Inhibitor Conc.
Kinetics studies were performed for each analogue. […] The Grafit version 7.0 was used for the construction of Lineveawer-Burk plots and their secondary replots.

MTT cytotoxicity assay = type: cell-based; conditions: mouse, 3T3 mouse fibroblast cells, 3T3 cells, 50% growth inhibition, read-out: Cytotoxicity IC50 ± SD
Protocol: Cytotoxicity studies were performed using a colorimetric assay that measures the reduction of 3-(4,5-dimethythiazol-2-yl)-2,5-diphenyl tetrazolium bromide (MTT) (yellow in color), by mitochondrial enzyme (i.e. succinate dehydrogenase). The MTT enters into the mitochondria of cell, where it is reduced to an insoluble formazan salt (purple in color). The extent of MTT reduction to formazan within cells was measured spectrophotometrically. As reduction of MTT can only occur in metabolically active cells the level of activity is actually a measure of the viability of the cells^22.
Mouse fibroblast cell line 3T3 was cultured in DMEM, supplemented with 5% of FBS, 100 IU/ml of penicillin and 100 μg/ml of streptomycin, and kept at 37° C. in 5% CO2 incubator. For the preparation of cell culture 100 μL/well of cell solution (5×10^4 cells/ml) was added into 96-well plate. The plate was incubated for overnight, and fresh medium was added after the removal of old medium. The test compounds were also added in different concentrations into the plate and plate was again incubated for 48 hrs. After the completion of this incubation period 200 μL MTT (0.5 mg/ml) was added and plate was again incubated for 4 hrs, after this final incubation 100 μL of DMSO was added to each well. The level of MTT reduction to formazan was evaluated by change in absorbance at 540 nm using a micro plate reader (Spectra Max plus, Molecular Devices, CA, USA).

[2] = target: T2, Bovine Carbonic Anhydrase-II (bovine erythrocyte CA-II) (Bos taurus, UniProt P00921); assay: Bovine carbonic anhydrase-II inhibition, 4-nitrophenyl acetate spectrophotometric assay; type: biochemical
T2 construct: pure bovine erythrocyte CA-II; from tissue; host or cells: bovine erythrocytes
T2 sequence (P00921 whole entry): as above
Protocol: (§1) Nineteen different analogues of benzamide sulfonamides were evaluated for carbonic anhydrase-II inhibition. The rate of catalyzed reaction was monitored by the amount of product formation by using the chromogenic substrate i.e., 4-nitrophenyl acetate.
4-Nitrophenyl acetate (4-NPA) is a colorless compound which is used as a substrate in carbonic anhydrase inhibition assay. The reaction involves the hydrolysis of 4-nitrophenyl acetate into […] and 4-nitrophenol a yellow colored compound. During this experiment, HEPES-tris buffer was used at 20 mM concentration with pH 7.4.
After 15 min of incubation of the enzyme with the test compound, the substrate was added to initiate the reaction. The reaction was carried out in triplicate with different concentrations of test compounds was used.
In this assay protocol, the reaction was performed by using a 96-well flat bottom plate.
The amount of product formation was measured at 400 nm for 30 min with 1 min interval, multiplate reader SPECTRA max 340 (Molecular Devices, CA, USA) was used to monitor the product formation.
The enzyme inhibitory activities were calculated using the following formula:
% Inhibition=100−(O.D of test/O.D of control)*100
(§2) Where test is the enzyme activity with sample and control is the enzyme activity without sample. The IC50 of the compounds were calculated by using EZ-Fit Enzyme Kinetic Program (Perrella Scientific Inc. Amhrest, U.S.A).

[3] = target: T3, Human Carbonic Anhydrase-II (human erythrocyte CA-II) (Homo sapiens, UniProt P00918); assay: HCA-II inhibitory activity, 4-nitrophenyl acetate spectrophotometric assay; type: biochemical; conditions: 4-nitrophenyl acetate 0.7 mM, pH 7.4, 25° C., 15 min preincubation; read-out: IC50 ± S.E.M. HCA-II
T3 construct: purified human erythrocyte CA-II; from tissue; host or cells: human erythrocytes
Protocol: as §1
Hydrolysis of 4-NPA (a colorless compound): yields 4-nitrophenol and […]. The reaction is monitored by quantifying the formation of 4-nitrophenol, a yellow colored compound.
In successive experiments, HEPES-tris was used as a buffer for the reaction at final concentration of 20 mM, with 7.4 pH. The total reaction volume of 200 μL includes, 140 μL of the HEPES-tris, 20 μL of test compound diluted in DMSO (20 μL of DMSO as a control sample), 20 μL of purified human erythrocyte CA-II (0.1 mg/mL) prepared in deionized water and 20 μL of a solution of 4-NPA (0.7 mM diluted in ethanol). Adhesion of enzyme with the plastic-ware was avoided by the addition of bovine serum albumin (1 mg/mL).
The 20 μL of test compound was incubated with enzyme for a period of 15 min. The rate of product formation was monitored with the addition of 20 μL substrate prepared in ethanol at a final concentration of 0.7 mM 4-nitrophenyl acetate at 25° C. for a period of 30 min with regular interval of 1 min.
The assay was performed in triplicates by using 96-well flat bottom plate.
The enzyme inhibitory activities were calculated using the following formula: […]
as §2

[4] = from secondary replots / Dixon plot, read-out: Ki
[5] = 4-nitrophenyl acetate 0.7 mM, pH 7.4, 15 min preincubation, read-out: IC50 ± S.E.M. BCA-II

Compound	Ki [1]	Type of Inhibition [1]	Vmax [1]	IC50 at 48 h (MTT cytotoxicity assay)	IC50 [2]	IC50 [3]	Vmax app [1]	Ki [1, 4]	IC50 [2, 5]
NS(=O)(=O)c1ccc(NC(=S)NC(=O)c2ccccc2)cc1 [Compound 1, N-(4-Sulfamoylphenylcarbamothioyl)benzamide]	52 nM	Noncompetitive	99.00 (μM/L/min)^−1	> 30000 nM	90 ± 7 nM	–	–	–	–
NS(=O)(=O)c1ccc(NC(=S)NC(=O)c2ccc(Cl)cc2)cc1 [Compound 2, 4-Chloro-N-(4-sulfamoylphenylcarbamothioyl)benzamide]	–	Noncompetitive	80 (μM/L/min)^−1	> 30000 nM	–	210 ± 10 nM	18.45	110 nM	160 ± 2 nM
Cc1ccc(C(=O)NC(=S)Nc2ccc(S(N)(=O)=O)cc2)cc1 [Compound 3, 4-Methyl-N-(4-sulfamoylphenylcarbamothioyl)benzamide]	–	Mixed type	80 (μM/L/min)^−1	> 30000 nM	–	90 ± 30 nM	52.63	58 nM	80 ± 3 nM
NS(=O)(=O)c1ccc(NC(=S)NC(=O)c2ccc([N+](=O)[O-])cc2)cc1 [Compound 4, 4-Nitro-N-(4-sulfamoylphenylcarbamothioyl)benzamide]	–	Noncompetitive	53.19 (μM/L/min)^−1	> 30000 nM	–	240 ± 40 nM	18.97	220 nM	130 ± 2 nM
NS(=O)(=O)c1ccc(NC(=S)NC(=O)c2cccc(Cl)c2)cc1 [Compound 5, 3-Chloro-N-(4-sulfamoylphenylcarbamothioyl)benzamide]	–	Noncompetitive	76.33 (μM/L/min)^−1	> 30000 nM	–	280 ± 60 nM	25.83	250 nM	140 ± 6 nM
NS(=O)(=O)c1ccc(NC(=S)NC(=O)c2cccc([N+](=O)[O-])c2)cc1 [Compound 6, 3-Nitro-N-(4-sulfamoylphenylcarbamothioyl)benzamide]	–	Mixed type	82.64 (μM/L/min)^−1	> 30000 nM	–	190 ± 1 nM	17.48	90 nM	80 ± 4 nM
NS(=O)(=O)c1ccc(NC(=S)NC(=O)c2ccccc2[N+](=O)[O-])cc1 [Compound 7, 2-Nitro-N-(4-sulfamoylphenylcarbamothioyl)benzamide]	–	Mixed type	71.42 (μM/L/min)^−1	> 30000 nM	–	120 ± 2 nM	19.30	140 nM	60 ± 5 nM
NS(=O)(=O)c1ccc(NC(=S)NC(=O)Cc2ccccc2)cc1 [Compound 8, 2-Phenyl-N-(4-sulfamoylphenylcarbamothioyl)acetamide]	–	Mixed type	81.30 (μM/L/min)^−1	> 30000 nM	–	160 ± 1 nM	7.77	35 nM	70 ± 3 nM
Cc1ccccc1C(=O)NC(=S)Nc1ccc(S(N)(=O)=O)cc1 [Compound 9, 2-Methyl-N-(4-sulfamoylphenylcarbamothioyl)benzamide]	–	Noncompetitive	90.90 (μM/L/min)^−1	> 30000 nM	–	180 ± 4 nM	14.61	58 nM	80 ± 2 nM
Cc1cccc(C(=O)NC(=S)Nc2ccc(S(N)(=O)=O)cc2)c1 [Compound 10, 3-Methyl-N-(4-sulfamoylphenylcarbamothioyl)benzamide]	–	Noncompetitive	62.5 (μM/L/min)^−1	> 30000 nM	–	190 nM	10.61	67 nM	90 ± 2 nM
COc1cccc(C(=O)NC(=S)Nc2ccc(S(N)(=O)=O)cc2)c1 [Compound 11, 3-Methoxy-N-(4-sulfamoylphenylcarbamothioyl)benzamide]	–	Noncompetitive	88.49 (μM/L/min)^−1	> 30000 nM	–	190 ± 5 nM	35.21	280 nM	90 ± 3 nM
NS(=O)(=O)c1ccc(NC(=S)NC(=O)c2ccc(Cl)cc2[N+](=O)[O-])cc1 [Compound 12, 4-Chloro-2-nitro-N-(4-sulfamoylphenylcarbamothioyl)benzamide]	–	Mixed type	108.69 (μM/L/min)^−1	> 30000 nM	–	460 ± 30 nM	34.12	24 nM	280 ± 7 nM
NS(=O)(=O)c1ccc(NC(=S)NC(=O)c2ccc(F)cc2)cc1 [Compound 13, 4-Fluoro-N-(4-sulfamoylphenylcarbamothioyl)benzamide]	–	–	–	> 30000 nM	–	580 ± 1 nM	–	–	130 ± 20 nM
COc1cc(C(=O)NC(=S)Nc2ccc(S(N)(=O)=O)cc2)cc(OC)c1OC [Compound 14, 3,4,5-Trimethoxy-N-(4-sulfamoylphenylcarbamothioyl)benzamide]	–	–	–	> 30000 nM	–	170 ± 2 nM	–	–	60 nM
NS(=O)(=O)c1ccc(NC(=S)NC(=O)c2ccc([N+](=O)[O-])cc2Cl)cc1 [Compound 15, 2-Chloro-4-nitro-N-(4-sulfamoylphenylcarbamothioyl)benzamide]	–	–	–	> 30000 nM	–	160 ± 10 nM	–	–	60 ± 1 nM

From patent US20170073306A1, “POTENT INHIBITORS OF HUMAN CARBONIC ANHYDRASE II AND BOVINE CARBONIC ANHYDRASE II AND THEIR MECHANISM OF ACTION” (priority 2015, published 2017)
